# Values joined by “and” are separate entries in the source; they are usually repeats but may differ in a detail not shown here. Identical values can stand only once.
# Tests used:
# HT-29 cells / U937 cells = assay: TNF-α-induced adhesion of HT-29 intestinal epithelial cells and U937 mononuclear cells; type: cell-based, human; details: Homo sapiens, TNF-α 10 ng/ml, read-out: Inhibitory rates (%); for inhibition at 1 µM: pre-treated 1 hour
# Method: HT-29 cells were cultured in a 24-well plate at a concentration of […] cells/cm^2, and meanwhile, amidopyridinol compounds 8a to 8z were pre-treated for 1 hour at each concentration in a serum-free medium supplemented only with 1% PS. Next, 10 ng/ml of TNF-α was treated therewith to allow a reaction at a temperature of 37° C. for 3 hours. After the completion of the reaction, the medium of the HT-29 cells was removed, and then, the HT-29 cells were washed with PBS once. Afterwards, U937 cells, which were treated and reacted with 10 μg/mL of BCECF-AM at a temperature of 37° C. for 30 minutes, were allowed to react with the HT-29 cells at temperature of 37° C. for 1 hour. Then, to remove U937 cells that were not adhered to the HT-29 cells, the reacted cells were washed with PBS twice. In terms of cell dissolution, 0.1% Triton X-100 in 0.1M Tris was allowed to react with the cells for 30 minutes at room temperature, and then, the cells were subjected to quantify by measuring fluorescence thereof using the Fluostar optima microplate reader (BMG Labtechnologies, Germany).
# TNBS-induced colitis = TNBS-induced colitis model of inflammatory bowel disease; type: in vivo, rat (Sprague Dawley); details: for conditions of the large intestine observed with the naked eye / changes in weights of the rat: TNBS-induced rats; for weight of the large intestine: vs TNBS-treated group
# From the text: To see alleviating effects of the compounds of the present invention on colitis, an animal model induced by TNBS and having colitis was used for the experiments. The animal used herein was a 7 to 8 week Sprague Dawley species purchased from Samtaco Bio Korea. After the purchase, the animal was stabilized with typical solid feed for 2 days before being used for the experiments. The animal was freely supplied with feed and water during the experiments, and stayed in conditions maintaining a cage temperature of about 25±1° C. and relative humidity of about 50±10%. The cage was equipped with an automatic lightening system to adjust 12-hour light-dark cycle.
# In regard to the experimental groups, 5 groups (i.e., a control group, a group administered with TNBS only, […], […], […]) were used according to the randomized block design, wherein each group consists of 6 rats having an average weight of about 180±10 g. The rats that had been fasting for 24 hours were anesthetized with diethylether (Et2O), and then, a 1 mL syringe connected with a polyethylene catheter was used to slowly inject 0.8 mL of 3% TNBS into colonic enema through the anus, wherein TNBS was diluted with 50% (v/v) ethanol. To prevent leakage of 3% TNBS from the anus, the rats turned upside down and let stand for 60 minutes.
# In regard to the control group, only a vehicle (50% (v/v) ethanol) was injected into the rats of the control group in the same manner as in preparation of other experimental groups. To examine the effects of the drug, after being fasting for 24 hours, the rats were administered with drugs, i.e., 0.1 mg/kg or 1.0 mg/kg of Compounds 8a and 8j, once a day at a certain time from the second day to the fifth day of the TNBS treatment. As a comparative experimental material, 5-ASA, which is an active metabolite of sulfasalazine that is the most well-known as a therapeutic agent for IBDs, was used as a positive control group.
# All the rats were scarified on the seventh day of the TNBS administration. […] After the large intestine of the rat was harvested, a 5 to 6 cm-long tissue from was cut from the anus to a size of 1 cm, and then, subjected to measure an intestine weight and activation of myeloperoxidase (MPO) in the tissue, and to perform a biopsy. In addition, changes in weight of all the animals used in the experiments were observed by using a digital mass meter, beginning from the fasting step, the TNBS administration, and the drug administration. In consideration of the management and use of laboratory animals, the animal experiments were followed according to institutional guidelines from Laboratory Animal Resources, Yeungnam University.
# To measure the activation of MPO, an MPO assay was used. The colorectal tissue was washed with cold PBS, and a weight thereof was measured. Then, 200 μL of lysis buffer (pH7.4, 200 mM NaCl, 5 mM EDTA, 10 mM Tris, 10% glycerol) was added for each 10 mg of the weight of the tissue, and then, the tissue homogenizer (Bio homogenizer M133, BIOSPEC PRODUCTS Inc. USA) was used for 30 seconds in terms of homogenization. The homogenized sample was subjected to centrifugation (1500×g) twice, each for 15 minutes. The supernatant obtained therefrom was used to measure the activation of MPO by using the MPO ELISA kit (HK210, Hycult Biotechnology, Netherlands). 100 μL of the supernatant was added to the 96-well plates, each of which well was coated with an anti-mouse MPO antibody, to allow a reaction at room temperature for 1 hour, followed by being washed with PBS three times. Here, 100 μL of a reconstituted tracer was added thereto to allow a reaction at room temperature for 1 hour, followed by being washed three times repeatedly. Then, 100 μL of a reptavidin-peroxidase conjugate was added thereto to allow a reaction at room temperature for 1 hours, followed being washed. Then, 100 μL of a TMB substrate solution was added thereto to allow a reaction for 30 minutes. […]
# [1] = system: VEGF-induced angiogenesis in chicken chorioallantoic membrane (CAM); assay: CAM analysis of VEGF-induced angiogenesis; type: in vivo; details: for inhibition in vivo at 0.01 nmol/CAM: Gallus gallus, 72 h, VEGF (20 ng/CAM) + Compound (0.01 nmol/CAM), number of blood vessels after 3 days, read-out: Inhibitory rates (%)
# Method: To confirm inhibitory effects on angiogenesis through in vivo experiments, the chorioallantoic membrane (CAM) analysis was carried out (refer to Nguyen M et al., Microvascular Res., 47, pp 31-40, 1994). A fertilized egg of a chicken was cultured in conditions maintaining a temperature of 37° C. and relative humidity of 55%. On the 10th day of the culturing, a first small hole was made on an air sac part using a hypodermic needle (Green Cross Medical Corp., Korea), and then, a second hole was made on a flat part of the fertilized egg to make a window thereon. Air was removed through the first hole, i.e., the air sac part, and accordingly, the CAM was separated from the shell of the fertilized egg. Then, a grinding wheel (Multipro 395JA, Dremel, Mexico) was used to cut the air sac part, thereby making a window thereon. Next, the whatman filter disk #1 (Whatman Company, USA) was treated with 3 mg/mL of cortisone acetate, dried, and then, wet by VEGF at a concentration of 20 ng/CAM. The filter disk was placed on blood vessels through the window, and then, compounds prepared according to Examples above were each dissolved in DMSO, diluted with PBS, and then, treated for each concentration. After 3 days of treating the compounds, the CAM part on which the filter disk was placed was isolated, and then, washed with PBS. The Stemi SV6 stereomicroscope (Carl Zeiss, Germany) and the Image-Pro Plus software (Media Cybernetics; Silver Spring, Md., USA) were used to capture images of the CAM part, so as to measure the number of the blood vessels and to analyze data obtained therefrom.
# A549 lung cancer cells = assay: CAM inoculated with A549 lung cancer cells: angiogenesis and tumor growth; type: in vivo, chicken; details: for Inhibition rates of angiogenesis (%) / Inhibition rates of tumor growth (%): A549 on CAM, 5 days
# Method: To confirm inhibitory effects on angiogenesis through in vivo experiments, the CAM analysis was carried out (refer to Nguyen M et al., Microvascular Res., 47, pp 31-40, 1994). A fertilized egg of a chicken was cultured in conditions maintaining a temperature of 37° C. and relative humidity of 55%. On the 9th day of the culturing, a first small hole was made on an air sac part using a hypodermic needle (Green Cross Medical Corp., Korea), and then, a second hole was made on a flat part of the fertilized egg to make a window thereon. Air was removed through the first hole, i.e., the air sac part, and accordingly, the CAM was separated from the shell of the fertilized egg. Then, a grinding wheel (Multipro 395JA, Dremel, Mexico) was used to cut the air sac part, thereby making a window thereon. Meanwhile, A549 lung cancer cells were mixed with matrigel at a ratio of 1:1, and then, the mixture was treated with Compounds 8a, 8b, and 8g, respectively, followed by being inoculated at a density of 1.5×10^6 cells/CAM.
# After 5 days of the inoculation, the CAM part on which tumors were formed was isolated, and then, washed with PBS. The Stemi SV6 stereomicroscope (Carl Zeiss, Germany) and the Image-Pro Plus software (Media Cybernetics; Silver Spring, Md., USA) were used to capture images of the CAM part, so as to measure the number of the blood vessels and to analyze data obtained therefrom.
# cathepsin S = assay: RT-PCR of cathepsin S gene expression in MDA-MB-231 cells; type: cell-based; details: Homo sapiens, MDA-MB-231, 24 h, screening, 1 μM of each compound; MDA-MB-231, RT-PCR; read-out: Inhibition rate of expression of cathepsin S (%)
# Method: Each compound of the present invention was treated with breast cancer cells (1×10^5 cell/cm^2), e.g., MDA-MB-231, and then, cultured at a temperature of 37° C. for 24 hours in a cell incubator. Afterwards, a trizole reagent was used to extract the entire mRNA therefrom. 24 hours later, the culture medium was removed therefrom, 1 mL of the triazole reagent was added to each well, and then, the cell elusion was transferred to a 1.5 mL tube. After 200 μl of chloroform was added to each sample, the samples were subjected to centrifugation at a temperature of 4° C., at 12,000 g, for 15 minutes. 500 μl of the supernatant obtained therefrom was transferred to a new tube. After 500 μl of isopropylalcohol was added to each sample, the samples were subjected to centrifugation at a temperature of 4° C., at 12,000 g, for 15 minutes. The supernatant obtained therefrom was removed from each sample, and then, the samples were washed with 75% ethanol to clean mRNA while the precipitants were dried. Then, mRNA extracted therefrom was dissolved in RNase-free water, followed by being heated at a temperature of 55° C. for 10 minutes.
# After the RNA quantification, the GoScript™ reverse transcription system (Promega Corporation, Madison, Wis., USA) was used to synthesize cDNA. Here, PCR was performed by using TaKaRa Taq™ (Takara bio Inc., Shiga, Japan), wherein a primer set of cathepsin S consists of a forward primer having SEQ ID NO: 1 (forward sequence: 5′-GCAGTGGCACAGTTGCATAA-3′) and a reverse primer having SEQ ID NO: 2 (reverse sequence: 5′-AGCACCACAAGAACCCATGT-3′). After the PCR product was subjected to agarose gel electrophoresis, the PCR product was stained with ethidium bromide (0.5 μg/ml), thereby obtaining images thereof by using the gel imaging system (UVP, Cambridge, UK). Here, the PCR product was quantified based on glyceraldehyde 3-phosphate dehydrogenase (GAPDH). A GAPDH primer used herein consists of a forward primer having SEQ ID NO: 3 (forward sequence: 5′-GGTGAAGGTCGGAGTCAACG-3′) and a reverse primer having SEQ ID NO: 4 (reverse sequence: 5′-CAAAGTTGTCATGGATGACC-3′).
# Furthermore, to screen other amidopyridinol derivatives that inhibit metastasis of breast cancer cells, inhibitory effects on expression of cathepsin S genes were reviewed by treating 1 μM of each compound, in the same manner as in Experimental Example 9.
compound,measurement,setting,value
"Nc1ccc(O)c(C(=O)O)c1 [Compound 5-ASA, 5-aminosalicylic acid, reference compound]",inhibition at 20000 µM,HT-29 cells / U937 cells; 20 mM,46.8%
same,activation of myeloperoxidase (MPO) in colorectal tissue,TNBS-induced colitis; 100 mg/kg,significantly decreased activation of MPO
same,conditions of the large intestine observed with the naked eye,TNBS-induced colitis; 100 mg/kg,significantly inhibited
same,weight of the large intestine,TNBS-induced colitis; 100 mg/kg,significantly decreased
same,changes in weights of the rat,TNBS-induced colitis; 300 mg/kg,slowly recovered on the third day
"Cc1nc(NC(=O)CCc2ccccc2)c(C)c(C)c1O [Compound 8j, N-(5-hydroxy-3,4,6-trimethylpyridine-2-yl)-3-phenylpropanamide]",inhibition in vivo at 0.01 nmol/CAM,[1],74.2 ± 3.9%
same,inhibition at 1 µM,HT-29 cells / U937 cells,72.5%
same,changes in weights of the rat,TNBS-induced colitis; 1.0 mg/kg once a day,significant weight recovery and increased weight
same,conditions of the large intestine observed with the naked eye,TNBS-induced colitis; 1.0 mg/kg,excellent inhibitory effects on swelling and congestion
same,weight of the large intestine,TNBS-induced colitis; 1.0 mg/kg,significantly decreased
"Cc1nc(NC(=O)C2CCCC2)c(C)c(C)c1O [Compound 8g, N-(5-hydroxy-3,4,6-trimethylpyridine-2-yl)cyclopentane carboxamide]",inhibition in vivo at 0.01 nmol/CAM,[1],81.8 ± 8.4%
same,ID50 against inhibition of angiogenesis,[1]; VEGF-induced CAM angiogenesis,0.9 pg/CAM and 3.6 fmol/CAM
same,inhibition at 1 µM,HT-29 cells / U937 cells,42.8%
same,Inhibition rates of angiogenesis (%),A549 lung cancer cells; 0.001 pmol/CAM,30.9 ± 8.5 %
same,Inhibition rates of tumor growth (%),A549 lung cancer cells; 0.001 pmol/CAM,13.2 ± 3.5%
same,Inhibition rates of angiogenesis (%),A549 lung cancer cells; 0.01 pmol/CAM,48.4 ± 4.1 %
same,Inhibition rates of tumor growth (%),A549 lung cancer cells; 0.01 pmol/CAM,24.0 ± 1.6 %
same,Inhibition rates of angiogenesis (%),A549 lung cancer cells; 0.1 pmol/CAM,54.4 ± 6.7 %
same,Inhibition rates of tumor growth (%),A549 lung cancer cells; 0.1 pmol/CAM,45.1 ± 3.1 %
same,Inhibition rates of angiogenesis (%),A549 lung cancer cells; 1.0 pmol/CAM,58.1 ± 6.8 %
same,Inhibition rates of tumor growth (%),A549 lung cancer cells; 1.0 pmol/CAM,62.7 ± 2.3 %
same,inhibitory effects on angiogenesis and tumor growth (in words),A549 lung cancer cells; at each density,"inhibited angiogenesis upon tumorigenesis, as well as tumor growth"
same,inhibition at 1 µM,cathepsin S,≥ 50%
